How the values were obtained:
[1] = Photosensitivity screening assay (H2O2 by Amplex Ultra Red after light exposure); type: physicochemical
Protocol: As a screening tool, antioxidant candidates were exposed to light for four hours at 250 W/m^2 and the resulting H2O2 formation was quantified by the Amplexassay. Specifically, antioxidants were prepared to 1 mM in 20 mM histidine acetate buffer at pH 5.5. The 1 mM antioxidant solutions were aliquoted into glass vials (2 mL/glass vial) and exposed to four hours of light at 250 W/m^2 in an Atlas SunTest CPS+ Xenon Test Instrument (Chicago, Ill.). Total UV dose was 90 watt-hours/square meter and total visible dose was 0.22 million lux hours over the 4-hour period. Control vials were wrapped in aluminum foil and treated similarly. The amount of hydrogen peroxide generated after exposure to light was measured using the Amplex® Ultra Red Assay (Invitrogen, Carlsbad, Calif.) following the manufacturer's recommended procedure. On addition of horseradish peroxidase (HRP), the dye reacted 1:1 stoichiometrically with H2O2, resulting in the production of fluorescent oxidation product resorufin. In this study, fluorescence readings were obtained using a Spectra Max M2 Micro-plate Reader (Molecular Devices, Sunnyvale, Calif.) with excitation and emission set at 560 nm and 590 nm, respectively. Final H2O2 concentrations were determined using a standard curve ranging from 0 μm to 20 μm.

[2] = Cyclic voltammetry (CV) screening assay, oxidation potential; type: physicochemical
Protocol: The oxidation/reduction characteristics of the compounds were investigated. Several compounds, including L-Trp and derivatives, were evaluated for the protection of Trp oxidation in proteins using cyclic voltammetry (CV) and rank ordered based on their oxidation potentials (Table 2). Specifically, the candidate antioxidants were dissolved in deionized water and then added to a 0.2 M lithium perchlorate electrolyte solution. […] Solutions were scanned from −0.10 V to +1.50 V at a scan rate of either 100 or 500 mV/sec. The analytical cell was purged for four minutes with nitrogen before scanning of each antioxidant solution. The input was a linear scan of the potential of a working electrode, and the output was measurement of the resulting current. […] Redox reactions were characterized by sharp increases or decreases in current (peaks). The potential at which an oxidation reaction occurred was referred to as the anodic peak potential (or oxidation potential), and the potential at which a reduction occurred was referred to as is the cathodic peak (or reduction) potential.

mAb1 [3] = assay: mAb1 AAPH stress study, RP-HPLC; type: physicochemical, human; details: for Fab (Trp residue) oxidation: mAb1 with AAPH for 24 hours at 40° C., antioxidants at 1 mM or none
Protocol: (§1) The fragments were reduced with DTT, and then separated and identified via Liquid Chromatography-Mass Spectrometry (LC-MS). […] Comparison of area integrated under the oxidized and native peaks was used to quantify HC Fab and Fc oxidation. […] By using the papain digest RP-HPLC method in the present study it was possible to investigate Trp residue oxidation by quantifying HC Fab oxidation, and Met residue oxidation by quantifying HC Fc oxidation.
Antioxidants were added at 1 mM. […] After buffer exchange, each solution was prepared for analysis by reverse-phase HPLC as described above.

mAb1 [4] = assay: mAb1 light stress study (16 hours at 250 W/m^2), RP-HPLC; type: physicochemical, human; details: 16 hours of light at 250 W/m^2; for Light-induced Fab oxidation, effect in words / Light-induced Fc oxidation, effect in words: excipient 1 mM; for Fab oxidation increase over the control level (mAb1 Ref Mat): excipient 1 mM or none; for Light-induced Fc oxidation, effect in words: compared to no excipient
Protocol: as §1
Antioxidants were added at 1 mM. Glass vials containing these formulations were exposed to 250 W/m^2 light in an Atlas SunTest CPS+ Xenon Test Instrument (Chicago, Ill.). Control vials were wrapped in aluminum foil and treated similarly. After light exposure, solutions were prepared for analysis by reverse-phase HPLC as described above.

mAb1 [5] = assay: Light stress of mAb1 formulation (eight hours at 250 W/m^2), papain digest RP-HPLC; type: physicochemical, human; details: for Fc oxidation, effect in words: no excipient, or 10, 25, 50 and 100 mM L-Met added to 1 mM L-Trp
Protocol: L-tryptophan (L-Trp), an antioxidant used in protein formulations, has been recently shown to be photosensitive (Igarashi et al., Anal Sci 23(8):943-8 (2007)) and to have the ability to produce H2O2 upon light exposure. […] Control vials were wrapped in aluminum foil and treated similarly. After light exposure, solutions were prepared for analysis by reverse-phase HPLC. […] Following incubation, 900 μL of the solution was combined with 100 μL of 1 M dithiothreitol (DTT) and incubated for another thirty minutes at 37° C. Samples were then run on an Agilent, Inc. 1100/1200 HPLC system (Santa Clara, Calif.) equipped with UV detection at 280 nm in conjunction with a Varian, Inc. Pursuit 3 μm, 2 mm ID×250 mm diphenyl column (Palo Alto, Calif.). Mobile Phase A was 0.1% TFA in water. Mobile Phase B was 0.1% TFA in acetonitrile. The mobile phase gradient increased linearly from 34% B at 0 minutes to 43% B at 50.0 minutes, then to 95% B at 50.1 minutes. The gradient remained at 95% B until 60.1 minutes, and then decreased linearly from 95% B to 34% B between 60.1 and 60.2 minutes. The gradient remained at 34% B until the end of the cycle at 80.2 minutes. The column temperature was 65° C., total flow rate was 0.2 mL/min, and injection volume of each sample was 6 μL. Chromatograms were then integrated for quantification of oxidation.

mAb1 [6] = assay: mAb1 Fenton stress study (H2O2 + Fe), RP-HPLC; type: physicochemical, human; details: 10 ppm H2O2 and 0.2 mM Fe(III), 40° C. for 3 hours; no excipient
Protocol: Antioxidants were added at a final concentration of 1 mM. […] After incubation, each reaction was quenched by addition of 100 mM L-Met and then prepared for analysis by reverse-phase HPLC as described above.
The Fenton reaction, using a mixture of H2O2 and Fe ions, generates oxidation through a metal catalyzed, hydroxyl radical reaction (Prousek et al., Pure and Applied Chemistry 79(12):2325-2338 (2007)). This reaction generated Fab, i.e. tryptophan, oxidation in mAb1. The reaction was also carried out in the presence of select antioxidants that were useful against both AAPH and light induced oxidation as reported above. Data related to the antioxidant properties against Fenton mediated reaction were analyzed using the RP-HPLC assay as described above. The Fenton reaction used 10 ppm of H2O2 and 0.2 mM of Fe(III). The reaction was incubated at 40° C. for 3 hours, quenched with 100 mM L-Met and analyzed using RP-HPLC after papain digest. All samples were the average of three separate vials, and mAb1 control (Ref Mat) was one vial with five independent injections on the HPLC. […] In regards to protection against Fc oxidation, the tested excipients (other than salicylic acid) performed slightly better than L-Trp.

[7] = 1 mM in 20 mM histidine acetate pH 5.5, four hours of light at 250 W/m^2
[8] = anodic peak potential, glassy carbon working electrode, 0.2M lithium perchlorate
[9] = eight hours of light at 250 W/m^2

Row | Compound | (H2O2 produced by Compound)/(H2O2 produced by L-Trp) [1, 7] | Oxidation Potential [2, 8] [V vs Ag/AgCl] | Fab (Trp residue) oxidation (mAb1 [3]) | Light-induced Fab oxidation, effect in words (mAb1 [4]) | Fab oxidation increase over the control level (mAb1 Ref Mat) (mAb1 [4]) [fold] | other results
1 | N[C@@H](Cc1c[nH]c2ccc(O)cc12)C(=O)O [5-Hydroxy-L-Trp, 5-hydroxy-L-tryptophan] | 0.09 | 0.565 | about 2% | near control levels |  | H2O2 produced compared to L-Trp, in words [1, 7]: about one tenth
2 | Oc1ccc2[nH]ccc2c1 [5-Hydroxyindole] | −0.08 | 0.580 | about 2% | near control levels |  | 
3 | Oc1cccc2cc[nH]c12 [7-Hydroxyindole] | −0.03 |  | about 2% | near control levels |  | 
4 | CSCC[C@H](N)C(=O)O [L-Met, L-methionine] |  |  |  |  |  | Fab oxidation, effect in words (mAb1 [5]; 10, 25, 50, and 100 mM L-Met added to formulation containing 1 mM L-Trp, eight hours of light): appeared to reduce Fab oxidation slightly; Fc oxidation, effect in words (mAb1 [5]; [9]): reduced the amount of Fc oxidation
5 | O=C(O)c1ccccc1O [Salicylic Acid] |  | 1.080 |  |  | 8 | (H2O2 produced by Compound)/(H2O2 produced by L-Trp) ([1]; pH 5.5): 0.03; H2O2 produced compared to L-Trp, in words ([1]; pH 5.5): very little H2O2; Oxidation potential relative to L-Trp, in words ([2]; cyclic voltammetry): higher oxidation potential than L-Trp; Oxidation Potential ([2]; cyclic voltammetry, 0.2 M lithium perchlorate): 1.080 V vs Ag/AgCl; AAPH-induced Fab oxidation, effect in words (mAb1 [3]; excipient 1 mM, AAPH 24 hours at 40° C.): almost no effect; Light-induced Fc oxidation, effect in words (mAb1 [4]): more Fc oxidation
6 | drozitumab [mAb1] |  |  |  |  | 3.5 | Fc oxidation, effect in words (mAb1 [5]; [9]): only a minor increase in Fc oxidation; Fab oxidation (mAb1 [5]; mAb1 5 mg/mL, eight hours of light at 250 W/m^2, no excipient or 1 mM L-Trp, reference material and foil control about 2%): 4%; Increase in Fc oxidation over the control level (mAb1 [4]; no excipient): 40%; Oxidation in the Fab region over the control (mAb1 [6]): about four times

Continued, in another order:

Row | (H2O2 produced by Compound)/(H2O2 produced by L-Trp) [1, 7] | Oxidation Potential [2, 8] [V vs Ag/AgCl] | Compound | Fab (Trp residue) oxidation (mAb1 [3]) | Light-induced Fab oxidation, effect in words (mAb1 [4]) | Fab oxidation increase over the control level (mAb1 Ref Mat) (mAb1 [4]) [fold] | other results
7 | 0.43 | 1.015 | NC(=O)[C@@H](N)Cc1c[nH]c2ccccc12 [L-Trpamide, L-tryptophanamide] |  |  | 8 | Oxidation potential relative to L-Trp, in words ([2]; cyclic voltammetry): higher oxidation potential than L-Trp; Light-induced Fc oxidation, effect in words (mAb1 [4]): more Fc oxidation
8 | 0.03 | 0.600 | NCCc1c[nH]c2ccc(O)cc12 [Serotonin (5-Hydroxytryptamine), 5-Hydroxytryptamine] | about 2% | near control levels |  | H2O2 produced compared to L-Trp, in words [1, 7]: very little H2O2
